Assay results from article PMC12491701, “Discovery of an APP-selective BACE1 inhibitor for Alzheimer's disease” (Neurotherapeutics, 2025).
Converted amounts (≈) assume the structure as drawn. “And” between values parts separate entries of the source, which are not always exact repeats. Identical values can stand only once. Each block holds one molecule with its values, some of them ahead of it.

Columns and labels:
[1] = test system: CHO-7W cells expressing wildtype human APP; experiment: sAPPβ and Aβ1-42 production in CHO-7W cells (AlphaLISA); type: cell-based, Chinese hamster; settings: in words
Protocol: Culture Media was collected and frozen. Media was assayed using an AlphaLISA for Aβ1-42 (Perkin Elmer catalog # AL276C), sAPPα (R&D Systems catalog # AF1168 conjugated with Perkin Elmer acceptor beads catalog # 6772001 + 2B3 antibody from IBL catalog # 11088 biotinylated), and sAPPβ (Perkin Elmer AL276-acceptor + IBL catalog # 18957 biotinylated). For the assay, 2 μL of diluted or undiluted sample was added to a 384 well plate, followed by 2 μL of the respective antibody mixture. This was incubated for 1 h. Afterwards, 2 μL of donor beads was added to each well, followed by a 30-min incubation in the dark, after which the signal was read.

[2] = molecular target: BACE1 (Homo sapiens, UniProt P56817); experiment: P5-P5′ BACE1 inhibition assay; type: biochemical; settings: for IC50: cell-free, read-out: BACE1 IC50 (P5-P5′ assay; BACE1-APP)
Chain of BACE1 (P56817 46-501): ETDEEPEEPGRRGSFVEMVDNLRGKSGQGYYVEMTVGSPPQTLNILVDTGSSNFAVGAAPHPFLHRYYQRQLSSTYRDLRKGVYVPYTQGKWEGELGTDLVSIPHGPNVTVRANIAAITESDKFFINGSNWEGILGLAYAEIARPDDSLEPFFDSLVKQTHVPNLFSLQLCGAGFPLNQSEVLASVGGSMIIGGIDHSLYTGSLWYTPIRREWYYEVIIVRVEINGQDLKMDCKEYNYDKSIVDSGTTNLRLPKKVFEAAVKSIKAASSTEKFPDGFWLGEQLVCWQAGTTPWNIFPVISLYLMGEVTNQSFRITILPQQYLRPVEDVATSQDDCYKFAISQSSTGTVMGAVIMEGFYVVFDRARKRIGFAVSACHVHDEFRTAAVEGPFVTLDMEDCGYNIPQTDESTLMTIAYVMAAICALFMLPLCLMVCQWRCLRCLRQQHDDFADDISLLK

[3] = Pharmacokinetics in mice; type: in vivo, mouse; settings: SQ injection of 10 mg/Kg, in words; 10 mg/kg
Protocol: Wildtype or non-transgenic (NTg) C57Bl6 mice or Sprague-Dawley rats were dosed by oral (gavage) or subcutaneous (SQ) injection at 10 or 30 mg/kg, and animals were euthanized 1, 2, 6, and 8 h after administration by ketamine/xylazine over-anesthesia, in rats, CSF was also collected, followed by transcardial collection of blood for isolation of plasma and saline perfusion. Brain tissue was collected post-mortem for assessment of compound levels and biomarkers.
Analyses of compound levels in PK studies were performed in the UCLA Pasarow Mass Spectrometry Lab (PMSL; Julian Whitelegge, Ph.D., Director). Tissues were homogenized in a bead beater using 5 vol of ice-cold 80 % acetonitrile (1/5; mg of brain/μL of 80 % ACN). Plasma analytes were extracted using 4 vol of ice-cold acetonitrile (1/4; μL of plasma/μL of 100 % ACN). Solutions were clarified by centrifugation (16,000×g, 5 min) and the supernatants were transferred to new tubes and lyophilized. Samples were reconstituted in 100 μL of 50/50/0.1 (Water/Acetonitrile/Formic Acid) prior to analysis via liquid chromatography-tandem mass spectrometry (LC-MS/MS).
An internal standard (IS) was added to every sample to account for compound loss during sample processing. Standards were made in drug naïve plasma and tissue lysates with increasing amounts of analyte (S1, S2: 0 pmol/S3, S4: 1 pmol/S5, S6: 10 pmol/S7, S8: 100 pmol, S9, S10: 1000 pmol). The standard curve was made by plotting the known amount of analyte per standard vs. the ratio of measured chromatographic peak areas corresponding to the analyte over that of the IS (analyte/IS). The trendline equation was then used to calculate the absolute concentrations of each compound in plasma and tissue.
The targeted LC-MS/MS assay was developed using the multiple reaction monitoring (MRM) acquisition method on a 6460 triple quadrupole mass spectrometer (Agilent Technologies) coupled to a 1290 Infinity HPLC system (Agilent Technologies) with a Phenomenex analytical column (Kinetex 1.7 μm C18 100 Å 100 × 2.1 mm). The HPLC method utilized a mixture of solvent A (99.9/0.1 Water/Formic Acid) and solvent B (99.9/0.1 Acetonitrile/Formic Acid) and a gradient was use for the elution of the compounds (min/%B: 0/1, 3/1, 19/99, 20/1, 30/1). Two fragment ions were monitored at specific LC retention times to ensure specificity and accurate quantification in the complex biological samples. The normalized chromatographic peak areas were determined by taking the ratio of measured chromatographic peak areas corresponding to the compound over that of the internal standard (Analyte/IS).
The Tmax, Cmax, brain-to-plasma ratios and brain levels were then calculated using PK Solutions software (SummitPK).

[4] = molecular target: eAPP (Homo sapiens, UniProt P05067); experiment: APP binding by surface plasmon resonance (SPR)
Chain of eAPP (P05067 18-701): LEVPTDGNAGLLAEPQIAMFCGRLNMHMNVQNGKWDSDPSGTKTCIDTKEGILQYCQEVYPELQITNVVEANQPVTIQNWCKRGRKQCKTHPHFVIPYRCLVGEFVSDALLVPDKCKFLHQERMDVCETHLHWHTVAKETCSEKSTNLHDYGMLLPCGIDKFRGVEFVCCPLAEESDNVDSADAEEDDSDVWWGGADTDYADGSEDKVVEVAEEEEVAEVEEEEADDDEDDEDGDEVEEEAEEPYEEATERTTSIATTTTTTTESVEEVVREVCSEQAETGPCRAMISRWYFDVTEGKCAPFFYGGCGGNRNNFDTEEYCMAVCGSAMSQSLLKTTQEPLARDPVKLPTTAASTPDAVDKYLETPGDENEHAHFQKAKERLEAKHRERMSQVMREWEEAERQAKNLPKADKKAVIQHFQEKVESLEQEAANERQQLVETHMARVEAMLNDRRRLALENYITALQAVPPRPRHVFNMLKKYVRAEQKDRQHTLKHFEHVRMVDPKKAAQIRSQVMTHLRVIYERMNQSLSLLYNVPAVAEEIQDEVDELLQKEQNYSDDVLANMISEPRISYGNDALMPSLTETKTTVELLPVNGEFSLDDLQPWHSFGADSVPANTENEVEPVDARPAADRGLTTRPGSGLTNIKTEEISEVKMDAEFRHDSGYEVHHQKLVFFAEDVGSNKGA

[5] = molecular target: T1, BACE1 cleavage of NRG1 (Homo sapiens, UniProt P56817); experiment: SEAP-NRG assay; type: cell-based; settings: at ∼1 μM, in words
T1 construct: with or without full-length wild-type BACE1; expressed in transfected cells; host or cells: HEK293
T1 sequence (P56817 46-501): as the sequence (P56817 46-501) above

[6] = Liver microsome stability assay; type: in vitro ADME; settings: human liver microsomes
Protocol: (§1) Liver microsome stability assay
(§2) A 1 µL sample of 1 mM FAH65 and its enantiomers in 100% DMSO was added to 1 mL of 0.5 mg/mL human liver microsomes (Thermo Fisher Scientific, Cat# HMMPL) in PBS pH 7.4, 2 mM NADPH, and 2 mM MgCl2; and incubated at 37 °C for 120 min. Aliquots (50 µL) of the microsome solution were taken […]
quenching solution containing an internal standard. Solutions were clarified by centrifugation (16K x g, 5 min) and supernatants transferred to new tubes and lyophilized. Samples were reconstituted in 100 µL of 50/50/0.1 water/acetonitrile/formic acid prior to analysis via LC-MS/MS.
Normalized chromatographic peak areas were plotted at each time point and the half-life (t1/2) of compound in liver microsomes was determined by using the trendline equation to calculate the time at which compound abundance was 50% of that at timepoint 0 (T0).
(§3) One µL FAH65 and its enantiomers (1 mM in 100% DMSO) was added to human peripheral blood plasma (Cat#70039, Stemcell Technologies Inc) diluted 2-fold in PBS (1000 µL, pH 7.4) and incubated […]
and 180 min, and added to a 200 µL 100% acetonitrile reaction quenching solution containing an internal standard. Solutions were clarified by centrifugation (16K x g, 5 min) and supernatants were transferred to new tubes and lyophilized. […]

[7] = Kinetic solubility assay; type: physicochemical; settings: PBS pH 7.4, 37 °C
Protocol: FAH65 and its enantiomers at 10 mM in 100% DMSO was diluted in PBS pH 7.4 to 100, 10, 1, and 0.1 µM; plus, a vehicle-only control. The solutions were incubated at 37 °C for 90 min and centrifuged at 16K x g for 5 min. An aliquot of each supernatant was analyzed by LC-MS/MS. A standard curve was generated by plotting the known amount of analyte per standard in DMSO vs. chromatographic peak […]
Kinetic solubility (µM) was calculated using the trendline equation with maximum chromatographic peak area observed in the aqueous sample. (Table S3)
as §1, §2
quenching solution containing an internal standard. Solutions were clarified by centrifugation (16K x g, 5 min) and supernatants transferred to new tubes and lyophilized. Samples were reconstituted in 100 µL of 50/50/0.1 water/acetonitrile/formic acid prior to analysis via LC-MS/MS. […]
as §3

[8] = molecular target: T2, human serum albumin (HSA) (Homo sapiens, UniProt P02768); experiment: Human serum albumin (HSA) binding assay; type: in vitro ADME
T2 construct: purchased Chiral Technologies H15L-109
T2 sequence (P02768 25-609): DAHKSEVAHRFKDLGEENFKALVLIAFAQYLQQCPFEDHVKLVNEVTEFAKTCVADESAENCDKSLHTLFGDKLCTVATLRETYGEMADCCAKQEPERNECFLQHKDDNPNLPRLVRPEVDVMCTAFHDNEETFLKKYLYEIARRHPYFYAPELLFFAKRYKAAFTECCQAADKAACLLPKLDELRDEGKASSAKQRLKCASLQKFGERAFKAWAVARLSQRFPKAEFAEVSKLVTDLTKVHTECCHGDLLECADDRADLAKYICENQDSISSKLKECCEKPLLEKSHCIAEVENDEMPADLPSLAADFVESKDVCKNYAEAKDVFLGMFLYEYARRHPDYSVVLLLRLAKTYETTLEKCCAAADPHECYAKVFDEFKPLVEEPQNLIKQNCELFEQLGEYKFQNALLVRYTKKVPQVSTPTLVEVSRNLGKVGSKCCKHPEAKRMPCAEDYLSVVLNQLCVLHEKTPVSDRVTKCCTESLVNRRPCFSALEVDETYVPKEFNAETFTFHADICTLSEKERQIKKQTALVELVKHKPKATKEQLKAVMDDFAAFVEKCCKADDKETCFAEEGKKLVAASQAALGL
Protocol: Human serum albumin (HSA) binding assay
The liquid chromatography-ultraviolet/visible spectroscopy (LC-UV/Vis) assay was performed on a 1290 Infinity HPLC system (Agilent Technologies) with an HPLC column containing immobilized HSA
([…]® CAN, Chiral Technologies, Cat#H15L-109, 5 µm 50 x 4 mm). The HPLC method utilized an isocratic gradient containing 100% 6.7 mM phosphate buffer saline (pH 7.4). The retention time of the compound (tr) and injection peak were recorded.
The percent protein binding (P) was calculated using the following equations:
K’ = (tr – tm) / tm; P = 100 x [K’ / (K’ + 1)] […]
The […]
(§4) KIAM = (tr – t0) / t0; Pm = (KIAM / MW4) x 1010
(§5) Compounds with a Pm >0.85 are predicted to be BBB permeable (CNS+) at pH 7.4.
Brain Tissue Binding Assay […]
Cat#23235). Brain homogenate was diluted to 20 mg/mL in PBS (pH 7.4) and added to Slide-A-Lyzer™ MINI Dialysis Devices, 10K MWCO dialysis cups (Thermo Fisher Scientific, Cat#PI88401) in a 48-well plate containing PBS (500 µL; pH 7.4). 1 µL of 1 mM compound was added to the brain homogenate (final concentration: 2 µM compound, 0.5% DMSO) and incubated on a rocker for 4.5 hours at 37 °C. 50 µL of brain homogenate (within the dialysis cup) and PBS (within the 48-well plate) were transferred to new microcentrifuge tubes containing 200 µL of quenching reagent (100% acetonitrile) containing internal […]
standard. […]

[9] = Brain tissue binding assay; type: in vitro ADME, mouse; settings: brain homogenate, 2 µM compound
Protocol: The […]
as §4, §5
Brain Tissue Binding Assay
Brain tissue was homogenized in PBS (pH 7.4) (1: 3 weight(mg)/volume(µL)) and the protein concentration determined using the Micro BCA™ Pr otein Assay Kit (Thermo Fisher Scientific, Cat#23235). Brain homogenate was diluted to 20 mg/mL in PBS (pH 7.4) and added to Slide-A-Lyzer™ MINI Dialysis Devices, 10K MWCO dialysis cups (Thermo Fisher Scientific, Cat#PI88401) in a 48-well plate containing PBS (500 µL; pH 7.4). 1 µL of 1 mM compound was added to the brain homogenate (final concentration: 2 µM compound, 0.5% DMSO) and incubated on a rocker for 4.5 hours at 37 °C. 50 µL of brain homogenate (within the dialysis cup) and PBS (within the 48-well plate) were transferred to new microcentrifuge tubes containing 200 µL of quenching reagent (100% acetonitrile) containing internal standard. Solutions were clarified by centrifugation (16,000 x g, 5 min) and the supernatants were transferred to new tubes and lyophilized. Samples were reconstituted in 100 µL of 50/50/0.1 (Water/Acetonitrile/Formic Acid) prior to analysis via LC-MS/MS.
The % of the unbound drug was calculated using the following equation: fubound = [normalized peak area in buffer side / normalized peak area in brain side] x 100

[10] = Plasma stability assay; type: in vitro ADME; settings: human plasma, 37 °C, 180 min
Protocol: The effects of candidate ASBIs on BACE2 activity was assessed using the R&D Systems BACE2 activity assay kit (Catalog #: 4097-AS and ES010) formatted from to the manufacturers. For the assay, 4 μL of assay buffer was added to each well, followed by 2 μL of BACE2 diluted in assay buffer to 10 ng/µL.
Then, 2 μL of inhibitor, at the appropriate concentrations were added to the wells and incubated for 30 minutes at room temperature. For all dilutions of inhibitor, drug stock solutions of 10 mM in DMSO were diluted to 50 μM in water; subsequent dilutions were in 0.5% DMSO. Afterwards, 2 μL of fluorogenic BACE2 substrate, diluted to 50 μM in assay buffer, were added to each well, after which the signal generated was read every 30 minutes at 25 °C for 2 hr (Fig S2).
FAH65 and its enantiomers at 10 mM in 100% DMSO was diluted in PBS pH 7.4 to 100, 10, 1, and 0.1 µM; plus, a vehicle-only control. The solutions were incubated at 37 °C for 90 min and centrifuged at 16K x g for 5 min. An aliquot of each supernatant was analyzed by LC-MS/MS. […]
Kinetic solubility (µM) was calculated using the trendline equation with maximum chromatographic peak area observed in the aqueous sample. […]
([…]® CAN, Chiral Technologies, Cat#H15L-109, 5 µm 50 x 4 mm). […] The retention time of the compound (tr) and injection peak were recorded.
The percent protein binding (P) was calculated using the following equations: […]

[11] = Pilot PK of FAH65 vs. verubecestat in rats; type: in vivo, rat; settings: oral gavage, 30 mg/kg

IC50 [2]: 5 to 10 µM and ~10 µM
brain permeability [3]: brain permeable
SMILES: CN1C(=O)C(c2ccccc2)(c2cc(F)cc(F)c2)N=C1N (centres unmarked) [FAH1]
Aβ42 ([1]; 5 μM): decreased

Kd [4]: ~0.3 µM
inhibition at 1 µM ([2]; at ∼1 μM, read-out: inhibition of BACE1 cleavage of APP): 50%
IC50 [2]: 1 to 4 µM and ~1 µM and 0.5 to 1 µM
brain permeability [3]: had brain permeability
inhibition of SEAP-NRG cleavage [5]: no SEAP-NRG cleavage
SMILES: Cc1cc(C2(c3cc(F)cc(F)c3)N=C(N)N(C)C2=O)ccc1OC(F)F (centres unmarked) [FAH3]
Aβ1-42 production ([1]; 1 μM): decreased

Microsomal stability T1/2 [6]: 0.4 h
solubility kinetic at 90 min [7]: 87 µM (≈ 36.8 µg/mL)
Plasma (HSA) binding, funbound [8]: 0.8%
Activity in the P5-P5′ assay ([2]; in words): inactive
Brain tissue binding, funbound [9]: 6.2%
Plasma stability t1/2 [10]: > 3 h
SMILES: Cc1cc(C2(c3cccc(-c4cncnc4)c3)N=C(N)N(C)C2=O)ccc1OC(F)F (stereo not drawn) [FAH65E(+)]

Cmax ([11]; both sexes, Sprague-Dawley, rat, brain): 157 ng/g
time of brain Cmax [11]: 2 h
SMILES: CN1C(=N)N[C@](C)(c2cc(NC(=O)c3ccc(F)cn3)ccc2F)CS1(=O)=O [Veru, verubecestat, reference compound]
